Reference: patent publication US9011925B2, “Method for preparing polysaccharide nanocomposite particles and uses of the same” (China Medical University, priority 2011, dated 2015)
≈ marks a conversion by molar mass, not a printed value.

Experiments:
[1] = Surface potential analysis (Zetasizer, DLS); type: physicochemical; settings: diluted 50-folds with water, sonicated 1 hour
Method: [Surface Potential Analysis]
The samples were diluted 50-folds with water, and sonicated for 1 hour by using an ultrasonic vibration machine. Then, the samples dissolved in water were analyzed by using a Zetasizer machine (Malvern ZS90) based on the principle of dynamic light scattering (DLS) to observe the surface potential and particle size distribution of the particles.

[2] = tested on: Colo 205 human rectum tumor cells; assay: Cytotoxicity assay (MTT); type: cell-based; settings: colo 205 cells, 72th hour, read-out: 1050 (50% concentration of inhibition)
Method: Colo 205 human rectum tumor cells were inoculated in a 24-well culture dish (1×10^4 cells/well), and incubated in an incubator at 37° C. under 5% CO2 for 24 hours. Then, the active component (KCY-Tai 1 and KCY-Tai 2) or polysaccharide nanocomposite particles (KCY-Tai 1-CNPs and KCY-Tai 2-CNPs 2) with different concentrations (0.39 to 12.5 μg/ml) was respectively added into the culture dish, and the cells were incubated for 24, 72, and 120 hours. The cells were washed with 1×PBS twice. MTT (3-(4,5-dimethyl thiazole-2-yl)-2,5-diphenyl tetrazolium bromide) (0.5 mg/ml) was added to the culture dish (200 μl/well), and the dish was placed in an incubator at 37° C. under 5% CO2. After incubating for 4 hours, MTT was sucked out and removed, and […] dimethyl sulfoxide (DMSO) was added into each well. After incubating on the shaker for 30 minutes, […] of the sample was sucked out from each well and transferred into a 96-well culture dish. The absorbance of the sample was determined under the wavelength of 570 nm by an enzyme-linked immunosorbent assay (ELISA) reader.

[3] = tested on: lung cancer cells, breast cancer cells, and rectal cancer cells; settings: cited from earlier work
HepG2/A2 = settings: cited from earlier work
p53 protein = settings: HepG2/A2 cells; cited from earlier work

Structure (SMILES)	Surface potential (mV) [1] [mV]	IC50 [2] [µg/mL]	cytotoxicity effects on lung, breast and rectal cancer cells [3]	cell cycle effect (HepG2/A2; accumulation of cyclin B1/cdc2 complex)	apoptosis markers (micronucleation, DNA fragmentation, caspase-3) (HepG2/A2)	effect on mitotic spindle (immunofluorescence staining) (HepG2/A2)	p53 protein activation (p53 protein)
COc1cc(/C=C2/C(=O)OC/C2=C/c2ccc3c(c2)OCO3)cc(OC)c1OC [KCY-Tai 2]	−11.8	0.7 (≈ 1.77 µM)	significant cytotoxicity effects				
O=C1OCC(=C/c2ccc3c(c2)OCO3)/C1=C\c1ccc2c(c1)OCO2 [KCY-Tai 1]	−22.5	3 (≈ 8.56 µM)	significant cytotoxicity effects	arrested at G2/M phase	activation of caspase-3	interrupt the formation of mitotic spindle	activation of p53 protein
